# Results: US7244431B2, “Allergy vaccines and their preparation” (priority 2000, dated 2007)
# Experiments:
# [1] = system: IgE antibodies in sera from birch pollen allergic patients; assay: ELISA detection of peptide- and rBet v 1-specific IgE antibodies; assay type: binding, human
# Method in brief: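 IgE binding detected by 1:1000 alkaline-phosphatase mouse monoclonal anti-human IgE after overnight 4 °C incubation with 1:3-diluted sera. Sera came from 60 birch pollen allergic patients (25 male, 35 female, age 19–60) and a non-atopic control.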
# [2] = system: birch pollen allergic patients; assay: Skin prick testing of allergic patients; assay type: in vivo, human; conditions: 100 μg/ml
# Protocol: SPTs were performed on the individuals forearms as described ([…]. et al. (1997) J. Clin Invest. 99, 1673-168; Dreborg S: (1989) J. Am. Acad. DerMatol. 21, 820-821). […] In addition standardized skin prick solutions (birch pollen extract and histamine) (Allergopharma, Reinbek, Germany) were tested. Reactions were recorded 20 minutes after SPT by photography and by transferring the ballpoint pen-surrounded wheal area with a scotch tape to paper.
sequence,measurement,setting,value
"MGVFNYETETTSVIPAARLFKAFIC [Peptide P1, Bet v 1-derived synthetic peptide, position aa 1-24, one cysteine added]",IgE (OD),"[1]; serum of NHS, non-allergic control individual",— (Dashes indicate reactivities below the cut-off level (OD=0.050))
same,IgE (OD),[1]; serum of patient 1,— (Dashes indicate reactivities below the cut-off level (OD=0.050))
same,IgE (OD),[1]; serum of patient 2,— (Dashes indicate reactivities below the cut-off level (OD=0.050))
same,IgE (OD),[1]; serum of patient 3,— (Dashes indicate reactivities below the cut-off level (OD=0.050))
same,IgE (OD),[1]; serum of patient 4,— (Dashes indicate reactivities below the cut-off level (OD=0.050))
same,IgE (OD),[1]; serum of patient 5,— (Dashes indicate reactivities below the cut-off level (OD=0.050))
same,IgE (OD),[1]; serum of patient 6,— (Dashes indicate reactivities below the cut-off level (OD=0.050))
same,IgE (OD),[1]; serum of patient 7,— (Dashes indicate reactivities below the cut-off level (OD=0.050))
same,IgE (OD),[1]; serum of patient 8,— (Dashes indicate reactivities below the cut-off level (OD=0.050))
same,IgE (OD),[1]; serum of patient 9,— (Dashes indicate reactivities below the cut-off level (OD=0.050))
same,IgE (OD),[1]; serum of patient 10,— (Dashes indicate reactivities below the cut-off level (OD=0.050))
same,IgE (OD),[1]; serum of patient 11,— (Dashes indicate reactivities below the cut-off level (OD=0.050))
same,IgE (OD),[1]; serum of patient 12,— (Dashes indicate reactivities below the cut-off level (OD=0.050))
same,IgE (OD),[1]; serum of patient 13,— (Dashes indicate reactivities below the cut-off level (OD=0.050))
same,IgE (OD),[1]; serum of patient 14,— (Dashes indicate reactivities below the cut-off level (OD=0.050))
same,IgE (OD),[1]; serum of patient 15,— (Dashes indicate reactivities below the cut-off level (OD=0.050))
same,IgE (OD),[1]; serum of patient 16,— (Dashes indicate reactivities below the cut-off level (OD=0.050))
same,IgE (OD),[1]; serum of patient 17,— (Dashes indicate reactivities below the cut-off level (OD=0.050))
same,IgE (OD),[1]; serum of patient 18,— (Dashes indicate reactivities below the cut-off level (OD=0.050))
same,IgE (OD),[1]; serum of patient 19,— (Dashes indicate reactivities below the cut-off level (OD=0.050))
same,IgE (OD),[1]; serum of patient 20,— (Dashes indicate reactivities below the cut-off level (OD=0.050))
same,IgE (OD),[1]; serum of patient 21,— (Dashes indicate reactivities below the cut-off level (OD=0.050))
same,IgE (OD),[1]; serum of patient 22,— (Dashes indicate reactivities below the cut-off level (OD=0.050))
same,IgE (OD),[1]; serum of patient 23,— (Dashes indicate reactivities below the cut-off level (OD=0.050))
same,IgE (OD),[1]; serum of patient 24,— (Dashes indicate reactivities below the cut-off level (OD=0.050))
same,IgE (OD),[1]; serum of patient 25,— (Dashes indicate reactivities below the cut-off level (OD=0.050))
same,IgE (OD),[1]; serum of patient 26,— (Dashes indicate reactivities below the cut-off level (OD=0.050))
same,IgE (OD),[1]; serum of patient 27,— (Dashes indicate reactivities below the cut-off level (OD=0.050))
same,IgE (OD),[1]; serum of patient 28,— (Dashes indicate reactivities below the cut-off level (OD=0.050))
same,IgE (OD),[1]; serum of patient 29,— (Dashes indicate reactivities below the cut-off level (OD=0.050))
same,IgE (OD),[1]; serum of patient 30,— (Dashes indicate reactivities below the cut-off level (OD=0.050))
same,IgE (OD),[1]; serum of patient 31,— (Dashes indicate reactivities below the cut-off level (OD=0.050))
same,IgE (OD),[1]; serum of patient 32,— (Dashes indicate reactivities below the cut-off level (OD=0.050))
same,IgE (OD),[1]; serum of patient 33,— (Dashes indicate reactivities below the cut-off level (OD=0.050))
same,IgE (OD),[1]; serum of patient 34,— (Dashes indicate reactivities below the cut-off level (OD=0.050))
same,IgE (OD),[1]; serum of patient 35,— (Dashes indicate reactivities below the cut-off level (OD=0.050))
same,IgE (OD),[1]; serum of patient 36,— (Dashes indicate reactivities below the cut-off level (OD=0.050))
same,IgE (OD),[1]; serum of patient 37,— (Dashes indicate reactivities below the cut-off level (OD=0.050))
same,IgE (OD),[1]; serum of patient 38,— (Dashes indicate reactivities below the cut-off level (OD=0.050))
same,IgE (OD),[1]; serum of patient 39,— (Dashes indicate reactivities below the cut-off level (OD=0.050))
same,IgE (OD),[1]; serum of patient 40,— (Dashes indicate reactivities below the cut-off level (OD=0.050))
same,IgE (OD),[1]; serum of patient 41,— (Dashes indicate reactivities below the cut-off level (OD=0.050))
same,IgE (OD),[1]; serum of patient 42,— (Dashes indicate reactivities below the cut-off level (OD=0.050))
same,IgE (OD),[1]; serum of patient 43,— (Dashes indicate reactivities below the cut-off level (OD=0.050))
same,IgE (OD),[1]; serum of patient 44,— (Dashes indicate reactivities below the cut-off level (OD=0.050))
same,IgE (OD),[1]; serum of patient 45,— (Dashes indicate reactivities below the cut-off level (OD=0.050))
same,IgE (OD),[1]; serum of patient 46,— (Dashes indicate reactivities below the cut-off level (OD=0.050))
same,IgE (OD),[1]; serum of patient 47,— (Dashes indicate reactivities below the cut-off level (OD=0.050))
same,IgE (OD),[1]; serum of patient 48,— (Dashes indicate reactivities below the cut-off level (OD=0.050))
same,IgE (OD),[1]; serum of patient 49,— (Dashes indicate reactivities below the cut-off level (OD=0.050))
same,IgE (OD),[1]; serum of patient 50,— (Dashes indicate reactivities below the cut-off level (OD=0.050))
same,IgE (OD),[1]; serum of patient 51,— (Dashes indicate reactivities below the cut-off level (OD=0.050))
same,IgE (OD),[1]; serum of patient 52,— (Dashes indicate reactivities below the cut-off level (OD=0.050))
same,IgE (OD),[1]; serum of patient 53,— (Dashes indicate reactivities below the cut-off level (OD=0.050))
same,IgE (OD),[1]; serum of patient 54,— (Dashes indicate reactivities below the cut-off level (OD=0.050))
same,IgE (OD),[1]; serum of patient 55,— (Dashes indicate reactivities below the cut-off level (OD=0.050))
same,IgE (OD),[1]; serum of patient 56,— (Dashes indicate reactivities below the cut-off level (OD=0.050))
same,IgE (OD),[1]; serum of patient 57,— (Dashes indicate reactivities below the cut-off level (OD=0.050))
same,IgE (OD),[1]; serum of patient 58,— (Dashes indicate reactivities below the cut-off level (OD=0.050))
same,IgE (OD),[1]; serum of patient 59,— (Dashes indicate reactivities below the cut-off level (OD=0.050))
same,IgE (OD),[1]; serum of patient 60,— (Dashes indicate reactivities below the cut-off level (OD=0.050))
same,mean wheal diameter,[2]; individual 1,0 mm
same,mean wheal diameter,[2]; individual 2,0 mm
same,mean wheal diameter,[2]; individual 3,0 mm
same,mean wheal diameter,[2]; individual 4,0 mm
same,mean wheal diameter,[2]; individual 5,0 mm
same,mean wheal diameter,"[2]; individual 6 (allergic, without birch pollen allergy)",0 mm
